Experimental data taken from US7741337B2, “Azonafide derivatives, methods for their production and pharmaceutical compositions therefrom” (Unibioscreen S.A., priority 2005, dated 2010).
Counter-ions that a name gives are not always drawn.

The molecules below were run on human cancer cell lines PC3, U-373MG, BxPC3, LoVo, A549 and MCF-7 (assay: MTT test, effect on overall cell growth (mean of six cell lines, examples 27 to 45)). Details: mean of six cell lines PC3, U-373MG, A549, MCF-7, 72 hours incubation, range of molar concentrations resulting in 50% inhibition of overall tumor cells growth.
Type: cell-based
Procedure: (§1) MTT tests were performed in order to rapidly, i.e. within 5 days, measure the effect of azonafide derivatives of this invention on the overall cell growth. The test measures the number of metabolically active living cells that are able to transform the yellow product 3-(4,5-dimethylthiazol-2-yl)-2,5-diphenyl tetrazolium bromide (herein referred as MTT) into the blue product formazan dye by mitochondrial reduction. The amount of formazan obtained at the end of the experiment, measured by means of a spectrophotometer, is directly proportional to the number of living cells. Optical density determination thus enables a quantitative measurement of the effect of the investigated compounds as compared to the control condition (untreated cells) and/or to other reference compounds.
(§2) Height human cancer cell lines described in table 1 were used in the following MTT tests. These cell lines cover six histological cancer types, being prostate, glioma, pancreas, colon, lung and breast cancers. Cells were allowed to grow in 96-well micro-wells with a flat bottom with an amount of 100 μl of cell suspension per well with 1,000 to 4,000 cells/well depending on the cell type used. Each cell line was seeded in a well known MEM 5% serum culture medium.
(§3) The detailed experimental procedure was as following: after a 24-hour period of incubation at 37° C., the culture medium was replaced by 100 μl of fresh medium in which the compound to be tested was dissolved at the following molar concentrations: 10^−9 M, 5.10^−9 M, 10^−8 M, 5.10^−8 M, 10^−7 M, 5.10^−7 M, 10^−6 M, 5.10^−6 M and 10^−5 M. Each experiment was repeated 6 times.
(§4) After 72 hours of incubation at 37° C. with (experimental conditions) or without (control condition) the compound to be tested, the medium was replaced by 100 μl MTT dissolved in RPMI at a concentration of 1 mg/ml. The micro-wells were subsequently incubated during 3 hours at 37° C. and centrifuged at 400 g during 10 minutes. MTT was removed and formazan crystals formed were dissolved in 100 μl DMSO. The micro-wells were shaken for 5 minutes and read on a spectrophotometer at wavelengths of 570 nm (maximum formazan absorbance) and 630 nm (back-ground noise).
(§5) For each experimental condition, the mean optical density was calculated, as well as the percentage of remaining living cells in comparison with the control.
(§6) IC50 values for compounds of examples 3 to 26 were obtained on cell lines Hs683, U-373MG, HCT-15, LoVo, A549 and MCF-7 described in Table 1. IC50 values for compounds from examples 27 to 45 were obtained on cell lines PC3, U-373MG, BxPC3, LoVo, A549 and MCF-7 described in Table 1.

SMILES	IC50
CN(C)CCN1C(=O)c2cccc3cc4cccc(NC(=S)NCc5ccco5)c4c(c23)C1=O [Example 40, 1-{2-[2-(dimethylamino)ethyl]-1,3-dioxo-2,3-dihydro-1H-dibenzo[de,h]isoquinolin-11-yl}-3-[2-furylmethyl]thiourea]	1 to 5 µM
COc1ccccc1NC(=S)Nc1cccc2cc3cccc4c3c(c12)C(=O)N(CCN(C)C)C4=O [Example 37, 1-{2-[2-(dimethylamino)ethyl]-1,3-dioxo-2,3-dihydro-1H-dibenzo[de,h]isoquinolin-11-yl}-3-[2-methoxyphenyl]thiourea]	> 10 µM
COc1ccc(NC(=S)Nc2cccc3cc4cccc5c4c(c23)C(=O)N(CCN(C)C)C5=O)cc1 [Example 34, 1-{2-[2-(dimethylamino)ethyl]-1,3-dioxo-2,3-dihydro-1H-dibenzo[de,h]isoquinolin-11-yl}-3-[4-methoxyphenyl]thiourea]	> 10 µM
CN(C)CCN1C(=O)c2cccc3cc4cccc(NC(=O)OCCCCCl)c4c(c23)C1=O [Example 28, 4-chlorobutyl {2-[2-(dimethylamino)ethyl]-1,3-dioxo-2,3-dihydro-1H-dibenzo[de,h]isoquinolin-11-yl}carbamate]	> 10 µM
C=CCNC(=S)Nc1cccc2cc3cccc4c3c(c12)C(=O)N(CCN(C)C)C4=O [Example 36, 1-{2-[2-(dimethylamino)ethyl]-1,3-dioxo-2,3-dihydro-1H-dibenzo[de,h]isoquinolin-11-yl}-3-[allyl]thiourea]	> 10 µM

More lines, now with the values ahead:

IC50	SMILES
1 to 5 µM	CN(C)CCN1C(=O)c2cccc3cc4cccc(NC(=S)Nc5ccc6nsnc6c5)c4c(c23)C1=O [Example 43, 1-(2,1,3-Benzothiadiazol-5-yl)-3-{2-[2-(dimethylamino)ethyl]-1,3-dioxo-2,3-dihydro-1H-dibenzo[de,h]isoquinolin-11-yl}thiourea]
1 to 5 µM	CN(C)CCN1C(=O)c2cccc3cc4cccc(NC(=S)Nc5ccc(C(F)(F)F)cc5)c4c(c23)C1=O [Example 41, 1-{2-[2-(dimethylamino)ethyl]-1,3-dioxo-2,3-dihydro-1H-dibenzo[de,h]isoquinolin-11-yl}-3-[4-trifluoromethylphenyl]thiourea]
> 10 µM	CN(C)CCN1C(=O)c2cccc3cc4cccc(NC(=S)Nc5ccccc5OC(F)(F)F)c4c(c23)C1=O [Example 45, 1-{2-[2-(dimethylamino)ethyl]-1,3-dioxo-2,3-dihydro-1H-dibenzo[de,h]isoquinolin-11-yl}-3-[2-(trifluoromethoxy)phenyl]thiourea]
> 10 µM	CN(C)CCN1C(=O)c2cccc3cc4cccc(NC(=S)Nc5ccc(Br)cc5OC(F)(F)F)c4c(c23)C1=O [Example 39, 1-{2-[2-(dimethylamino)ethyl]-1,3-dioxo-2,3-dihydro-1H-dibenzo[de,h]isoquinolin-11-yl}-3-[2-trifluoromethoxy4-bromophenyl]thiourea]
> 10 µM	CCNC(=S)Nc1cccc2cc3cccc4c3c(c12)C(=O)N(CCN(C)C)C4=O [Example 35, 1-{2-[2-(dimethylamino)ethyl]-1,3-dioxo-2,3-dihydro-1H-dibenzo[de,h]isoquinolin-11-yl}-3-[ethyl]thiourea]
> 10 µM	CC(C)c1ccc(NC(=S)Nc2cccc3cc4cccc5c4c(c23)C(=O)N(CCN(C)C)C5=O)cc1 [Example 33, 1-{2-[2-(dimethylamino)ethyl]-1,3-dioxo-2,3-dihydro-1H-dibenzo[de,h]isoquinolin-11-yl}-3-[4-isopropylphenyl]thiourea]
5 to 10 µM	COCCNC(=S)Nc1cccc2cc3cccc4c3c(c12)C(=O)N(CCN(C)C)C4=O [Example 32, 1-{2-[2-(dimethylamino)ethyl]-1,3-dioxo-2,3-dihydro-1H-dibenzo[de,h]isoquinolin-11-yl}-3-[2-methoxyethyl]thiourea]
> 10 µM	CN(C)CCN1C(=O)c2cccc3cc4cccc(NC(=S)Nc5ccc(Br)cc5)c4c(c23)C1=O [Example 30, 1-{2-[2-(dimethylamino)ethyl]-1,3-dioxo-2,3-dihydro-1H-dibenzo[de,h]isoquinolin-11-yl}-3-[4-bromophenyl]thiourea]
> 10 µM	CN(C)CCN1C(=O)c2cccc3cc4cccc(NC(=S)Nc5cccnc5)c4c(c23)C1=O [Example 38, 1-{2-[2-(dimethylamino)ethyl]-1,3-dioxo-2,3-dihydro-1H-dibenzo[de,h]isoquinolin-11-yl}-3-[3-pyridyl]thiourea]

The molecules below were run on A549 (Lung cancer) cells (assay: Effect on cell migration, A549). Details: Homo sapiens, 22 hours on the 25% of most motile cells, at 10^−6 M, p value in same cell, read-out: Maximum effects (cell migration).
Type: cell-based
Procedure: (§7) Cells of different cancer lines, i.e. U-373 MG (Glioma cancer), PC3 (prostate cancer and A549 (Lung cancer) were seeded on culture flask 48 hours before the migration experiment. On the test day, cells were treated with or without the azonafide derivatives mentioned in table 3 in closed Falcon dishes containing a buffered medium at a controlled temperature (37.0±0.1° C.) for 12 or 22 hours, as noted in the right column of table 3. The azonafide derivatives were used at three non-cytotoxic concentrations (10^−6 M, 10^−7, 10^−8 M). Migration of the cells was observed by means of a CCD-camera mounted on a phase-contrast microscope. Statistical analysis of the migration, with the non-parametric Mann-Whitney test, was established for 25% and 50% of the most motile cells and for the entire cell population.

SMILES	Emax at 1 µM
CN(C)CCN1C(=O)c2cccc3cc4cccc(NC(=O)CCCCl)c4c(c23)C1=O [Example 10, 4-chloro-N-{2-[2-(dimethylamino)ethyl]-1,3-dioxo-2,3-dihydro-1H-dibenzo[de,h]isoquinolin-11-yl}butanamide]	-24%

Same assay, conditions: Homo sapiens, 22 hours on the 25% of most motile cells, at 10^−8 M, p value in same cell, read-out: Maximum effects (cell migration)

SMILES	Emax at 0.01 µM
C=CCOC(=O)Nc1cccc2cc3cccc4c3c(c12)C(=O)N(CCN(C)C)C4=O [Example 26, allyl {2-[2-(dimethylamino)ethyl]-1,3-dioxo-2,3-dihydro-1H-dibenzo[de,h]isoquinolin-11-yl}carbamate]	-29%

What follows are molecules tested on human cancer cell lines Hs683, U-373MG, HCT-15, LoVo, A549 and MCF-7 (assay: MTT test, effect on overall cell growth (mean of six cell lines, examples 3 to 26)). Details: mean of six cell lines Hs683, U-373MG, A549, MCF-7, 72 hours incubation, range of molar concentrations resulting in 50% inhibition of overall tumor cells growth.
Type: cell-based
Procedure: as §1, §2, §3, §4, §5, §6

SMILES	IC50
CN(C)CCN1C(=O)c2cccc3cc4cccc(NC(=O)CCCCl)c4c(c23)C1=O [Example 10, 4-chloro-N-{2-[2-(dimethylamino)ethyl]-1,3-dioxo-2,3-dihydro-1H-dibenzo[de,h]isoquinolin-11-yl}butanamide]	1 to 5 µM
CN(C)CCN1C(=O)c2cccc3cc4cccc(NC(=O)Oc5ccccc5)c4c(c23)C1=O [Example 18, phenyl {2-[2-(dimethylamino)ethyl]-1,3-dioxo-2,3-dihydro-1H-dibenzo[de,h]isoquinolin-11-yl}carbamate]	> 10 µM
CN(C)CCN1C(=O)c2cccc3cc4c(N)cccc4c(c23)C1=O [Example 4, 8-amino-2-[2-(dimethylamino)ethyl]-1H-dibenzo[de,h]isoquinoline-1,3(2H)-dione, reference compound]	1 to 5 µM
CN(C)CCN1C(=O)c2cccc3cc4c(NC(=O)NC(=O)c5ccccc5)cccc4c(c23)C1=O [Example 16, N-({2-[2-(dimethylamino)ethyl]-1,3-dioxo-2,3-dihydro-1H-dibenzo[de,h]isoquinolin-8-yl}carbamoyl)benzamide hydrochloride]	1 to 5 µM

Other lines, results leading:

IC50	SMILES
> 10 µM	CCOC(=O)CCC(=O)CC(=O)Nc1cccc2cc3cccc4c3c(c12)C(=O)N(CCN(C)C)C4=O [Example 23, ethyl 6-({2-[2-(dimethylamino)ethyl]-1,3-dioxo-2,3-dihydro-1H-dibenzo[de,h]isoquinolin-11-yl}amino)-4,6-dioxohexanoate]
> 10 µM	CN(C)CCN1C(=O)c2cccc3cc4cccc(NC(=O)CC(=O)CCc5ccccc5)c4c(c23)C1=O [Example 22, N-{2-[2-(dimethylamino)ethyl]-1,3-dioxo-2,3-dihydro-1H-dibenzo[de,h]isoquinolin-11-yl}-3-oxo-5-phenylpentanamide]
> 10 µM	CCCCCCCCCC(=O)CC(=O)Nc1cccc2cc3cccc4c3c(c12)C(=O)N(CCN(C)C)C4=O [Example 20, N-{2-[2-(dimethylamino)ethyl]-1,3-dioxo-2,3-dihydro-1H-dibenzo[de,h]isoquinolin-11-yl}-3-oxododecanamide]

The molecules below were run on U-373 MG, PC-3 and/or A549 cancer cells (assay: Effect on cell migration, summary of table 3). Details: U-373 MG, PC-3 and/or A549 cancer cells at the non-cytotoxic concentrations of this study.
Type: cell-based, human
Procedure: as §7

SMILES	migration level of cancer cells
CN(C)CCN1C(=O)c2cccc3cc4cccc(NC(=O)CCCCl)c4c(c23)C1=O [Example 10, 4-chloro-N-{2-[2-(dimethylamino)ethyl]-1,3-dioxo-2,3-dihydro-1H-dibenzo[de,h]isoquinolin-11-yl}butanamide]	induced a decrease in the migration level
C=CCOC(=O)Nc1cccc2cc3cccc4c3c(c12)C(=O)N(CCN(C)C)C4=O [Example 26, allyl {2-[2-(dimethylamino)ethyl]-1,3-dioxo-2,3-dihydro-1H-dibenzo[de,h]isoquinolin-11-yl}carbamate]	induced a decrease in the migration level

Same assay, conditions: comparison drawn from table 3

SMILES	cell migration activity compared with the closest compounds known in the art
C=CCOC(=O)Nc1cccc2cc3cccc4c3c(c12)C(=O)N(CCN(C)C)C4=O [Example 26, allyl {2-[2-(dimethylamino)ethyl]-1,3-dioxo-2,3-dihydro-1H-dibenzo[de,h]isoquinolin-11-yl}carbamate]	significantly greater cell migration activity than the closest compounds known in the art, or similar cell migration activity at significantly lower concentrations
